Assay results from US5137892A, “Quinoline, naphthyridine and pyridobenzoxazine derivatives” (Abbott Laboratories, priority 1990, dated 1992).
Values after ≈ are worked out from the molar mass of the structure shown.

Tests used:
Assay type in all cases: cell-based
[1] = tested on: Pseudomonas aeruginosa K599/61; settings: P. aeruginosa K599/61; BHI agar dilution, 20-24 hours; unit assumed
Procedure: (§1) The activity of the compounds of the present invention was tested against a wide variety of bacteria using standard assay procedures. Minimum inhibitory concentrations (MICs) were determined by the agar dilution method, described below, using Brain Heart Infusion agar.
(§2) Twelve petri dishes were prepared, each containing successive aqueous 2-fold dilutions of the test compounds mixed with 10 mL of sterilized Brain Heart Infusion (BHI) agar. Each plate was inoculated with 100-fold (or 10-fold, for slow-growing strains such as Micrococcus and Streptococcus) dilutions of up to 32 different microorganisms using a Steers replicator block calibrated to deliver approximately 10^4 colony forming units (CFUs). The inoculated plates were incubated at about 35°-37° C. for approximately 20-24 hours. In addition, a control plate, using BHI agar containing no test compound, was prepared and incubated at the beginning and at the end of each test. Ciprofloxacin was used as the reference antibiotic.
(§3) The MIC was defined as the lowest concentration of test compound yielding no growth (a slight haze or sparsely isolated colonies at the inoculum spot as compared to the growth control contaning no test compound.

[2] = tested on: Pseudomonas aeruginosa K799/WT; test: In Vitro Antibacterial Activity, agar dilution MIC; settings: P. aeruginosa K799/WT; BHI agar dilution, 20-24 hours; unit assumed
Procedure: as §1, §2, §3

[3] = tested on: Streptococcus agalactaciae CMX 508; test: In Vitro Antibacterial Activity, agar dilution MIC; settings: S. agalactaciae CMX 508; BHI agar dilution, 20-24 hours; unit assumed
Procedure: as §1, §2, §3

Staphylococcus aureus 45 = test: In Vitro Antibacterial Activity, agar dilution MIC; settings: S. aureus 45; BHI agar dilution, 20-24 hours; unit assumed
Procedure: as §1, §2, §3

[4] = tested on: Providencia stuartii CMX 640; test: In Vitro Antibacterial Activity, agar dilution MIC; settings: P. stuartii CMX 640; BHI agar dilution, 20-24 hours; unit assumed
Procedure: as §1, §2, §3

[5] = tested on: Micrococcus luteus ATCC 9341; test: In Vitro Antibacterial Activity, agar dilution MIC; settings: M. luteus ATCC 9341; BHI agar dilution, 20-24 hours; unit assumed
Procedure: as §1, §2, §3

[6] = tested on: Streptococcus pyogenes 2548 INDUC; test: In Vitro Antibacterial Activity, agar dilution MIC; settings: S. pyogenes 2548 INDUC; BHI agar dilution, 20-24 hours; unit assumed
Procedure: as §1, §2, §3

[7] = tested on: Staphylococcus aureus ATCC 6538P; test: In Vitro Antibacterial Activity, agar dilution MIC; settings: S. aureus ATCC 6538P; BHI agar dilution, 20-24 hours; unit assumed
Procedure: as §1, §2, §3

[8] = tested on: Klebsiella pneumoniae ATCC 8045; test: In Vitro Antibacterial Activity, agar dilution MIC; settings: K. pneumoniae ATCC 8045; BHI agar dilution, 20-24 hours; unit assumed
Procedure: as §1, §2, §3

Escherichia coli DC-2 = test: In Vitro Antibacterial Activity, agar dilution MIC; settings: E. coli DC-2; BHI agar dilution, 20-24 hours; unit assumed
Procedure: as §1, §2, §3

Escherichia coli H560 = test: In Vitro Antibacterial Activity, agar dilution MIC; settings: E. coli H560; BHI agar dilution, 20-24 hours; unit assumed
Procedure: as §1, §2, §3

[9] = tested on: Staphylococcus epidermidis 3519; test: In Vitro Antibacterial Activity, agar dilution MIC; settings: S. epidermidis 3519; BHI agar dilution, 20-24 hours; unit assumed
Procedure: as §1, §2, §3

[10] = tested on: Enterococcus faecium ATCC 8043; test: In Vitro Antibacterial Activity, agar dilution MIC; settings: E. faecium ATCC 8043; BHI agar dilution, 20-24 hours; unit assumed
Procedure: as §1, §2, §3

[11] = tested on: Staphylococcus aureus 642A; test: In Vitro Antibacterial Activity, agar dilution MIC; settings: S. aureus 642A; BHI agar dilution, 20-24 hours; unit assumed
Procedure: as §1, §2, §3

[12] = tested on: Pseudomonas aeruginosa A5007; test: In Vitro Antibacterial Activity, agar dilution MIC; settings: P. aeruginosa A5007; BHI agar dilution, 20-24 hours; unit assumed
Procedure: as §1, §2, §3

Escherichia coli KNK 437 = test: In Vitro Antibacterial Activity, agar dilution MIC; settings: E. coli KNK 437; BHI agar dilution, 20-24 hours; unit assumed
Procedure: as §1, §2, §3

[13] = tested on: Streptococcus pyogenes EES61; test: In Vitro Antibacterial Activity, agar dilution MIC; settings: S. pyogenes EES61; BHI agar dilution, 20-24 hours; unit assumed
Procedure: as §1, §2, §3

[14] = tested on: Staphylococcus aureus CMX 553; test: In Vitro Antibacterial Activity, agar dilution MIC; settings: S. aureus CMX 553; BHI agar dilution, 20-24 hours; unit assumed
Procedure: as §1, §2, §3

Acinetobacter SP CMX 699 = test: In Vitro Antibacterial Activity, agar dilution MIC; settings: BHI agar dilution, 20-24 hours, unit assumed
Procedure: as §1, §2, §3

[15] = tested on: Micrococcus luteus ATCC 4698; test: In Vitro Antibacterial Activity, agar dilution MIC; settings: M. luteus ATCC 4698; BHI agar dilution, 20-24 hours; unit assumed
Procedure: as §1, §2, §3

[16] = tested on: Staphylococcus aureus 1775; test: In Vitro Antibacterial Activity, agar dilution MIC; settings: S. aureus 1775; BHI agar dilution, 20-24 hours; unit assumed
Procedure: as §1, §2, §3

[17] = tested on: Staphylococcus aureus NCTC 10649; test: In Vitro Antibacterial Activity, agar dilution MIC; settings: S. aureus NCTC 10649; BHI agar dilution, 20-24 hours; unit assumed
Procedure: as §1, §2, §3

Escherichia coli SS = test: In Vitro Antibacterial Activity, agar dilution MIC; settings: E. coli SS; BHI agar dilution, 20-24 hours; unit assumed
Procedure: as §1, §2, §3

Pseudomonas cepacia 2961 = test: In Vitro Antibacterial Activity, agar dilution MIC; settings: P. cepacia 2961; BHI agar dilution, 20-24 hours; unit assumed
Procedure: as §1, §2, §3

[18] = tested on: Staphylococcus aureus A5177; test: In Vitro Antibacterial Activity, agar dilution MIC; settings: S. aureus A5177; BHI agar dilution, 20-24 hours; unit assumed
Procedure: as §1, §2, §3

Escherichia coli JUHL = test: In Vitro Antibacterial Activity, agar dilution MIC; settings: E. coli JUHL; BHI agar dilution, 20-24 hours; unit assumed
Procedure: as §1, §2, §3

[19] = tested on: Pseudomonas aeruginosa BMH10; test: In Vitro Antibacterial Activity, agar dilution MIC; settings: P. aeruginosa BMH10; BHI agar dilution, 20-24 hours; unit assumed
Procedure: as §1, §2, §3

[20] = tested on: Streptococcus bovis A5169; test: In Vitro Antibacterial Activity, agar dilution MIC; settings: S. bovis A5169; BHI agar dilution, 20-24 hours; unit assumed
Procedure: as §1, §2, §3

[21] = tested on: Enterobacter aerogenes ATCC 13048; test: In Vitro Antibacterial Activity, agar dilution MIC; settings: E. aerogenes ATCC 13048; BHI agar dilution, 20-24 hours; unit assumed
Procedure: as §1, §2, §3

[22] = tested on: Streptococcus pyogenes 930 CONST; test: In Vitro Antibacterial Activity, agar dilution MIC; settings: S. pyogenes 930 CONST; BHI agar dilution, 20-24 hours; unit assumed
Procedure: as §1, §2, §3

[23] = tested on: Staphylococcus aureus A-5278; test: In Vitro Antibacterial Activity, agar dilution MIC; settings: S. aureus A-5278; BHI agar dilution, 20-24 hours; unit assumed
Procedure: as §1, §2, §3

[24] = tested on: Pseudomonas aeruginosa 5263; test: In Vitro Antibacterial Activity, agar dilution MIC; settings: P. aeruginosa 5263; BHI agar dilution, 20-24 hours; unit assumed
Procedure: as §1, §2, §3

[25] = tested on: Pseudomonas aeruginosa 2862; test: In Vitro Antibacterial Activity, agar dilution MIC; settings: P. aeruginosa 2862; BHI agar dilution, 20-24 hours; unit assumed
Procedure: as §1, §2, §3

Cl.Cl.NCC1COC2(CCN(c3cc4c(cc3F)c(=O)c(C(=O)O)cn4-c3ccc(F)cc3F)C2)O1 (centres unmarked) [Example 159, 1-(2,4-difluorophenyl)-7-(2-aminomethyl-1,4-dioxa-7-azaspiro[4.4]non-7-yl)-6-fluoro-1,4-dihydro-4-oxo-3-quinolinecarboxylic acid dihydrochloride]
MIC values [1]: 0.39 µg/mL
MIC values [2]: 3.1 µg/mL
MIC values [3]: 0.78 µg/mL
MIC values (Staphylococcus aureus 45): 0.78 µg/mL
MIC values [4]: 25 µg/mL
MIC values [5]: 12.5 µg/mL
MIC values [6]: 0.39 µg/mL
MIC values [7]: 0.2 µg/mL
MIC values [8]: 0.39 µg/mL
MIC values (Escherichia coli DC-2): 6.2 µg/mL
MIC values (Escherichia coli H560): 0.2 µg/mL
MIC values [9]: 0.78 µg/mL
MIC values [10]: 0.78 µg/mL
MIC values [11]: 0.39 µg/mL
MIC values [12]: 3.1 µg/mL
MIC values (Escherichia coli KNK 437): 3.1 µg/mL
MIC values [13]: 0.39 µg/mL
MIC values [14]: 0.78 µg/mL
MIC values (Acinetobacter SP CMX 699): 0.78 µg/mL
MIC values [15]: 6.2 µg/mL
MIC values [16]: 100 µg/mL
MIC values [17]: 0.2 µg/mL
MIC values (Escherichia coli SS): 0.02 µg/mL
MIC values (Pseudomonas cepacia 2961): 50 µg/mL
MIC values [18]: 0.39 µg/mL
MIC values (Escherichia coli JUHL): 0.39 µg/mL
MIC values [19]: 3.1 µg/mL
MIC values [20]: 0.78 µg/mL
MIC values [21]: 0.78 µg/mL
MIC values [22]: 0.39 µg/mL

C[C@@H]1COc2c(N3CCC4(CC3)OCCCO4)c(F)cc3c(=O)c(C(=O)O)cn1c23 [Example 330]
MIC values [1]: 0.78 µg/mL (≈ 1.86 µM)
MIC values [2]: 12.5 µg/mL (≈ 29.9 µM)
MIC values [3]: 0.78 µg/mL (≈ 1.86 µM)
MIC values [4]: 50 µg/mL (≈ 119 µM)
MIC values [5]: 1.56 µg/mL (≈ 3.73 µM)
MIC values [6]: 0.78 µg/mL (≈ 1.86 µM)
MIC values [7]: 0.1 µg/mL (≈ 0.239 µM)
MIC values [8]: 0.78 µg/mL (≈ 1.86 µM)
MIC values (Escherichia coli DC-2): 12.5 µg/mL (≈ 29.9 µM)
MIC values (Escherichia coli H560): 1.56 µg/mL (≈ 3.73 µM)
MIC values [9]: 0.2 µg/mL (≈ 0.478 µM)
MIC values [10]: 0.78 µg/mL (≈ 1.86 µM)
MIC values [11]: 0.2 µg/mL (≈ 0.478 µM)
MIC values [12]: 12.5 µg/mL (≈ 29.9 µM)
MIC values (Escherichia coli KNK 437): 12.5 µg/mL (≈ 29.9 µM)
MIC values [23]: 0.1 µg/mL (≈ 0.239 µM)
MIC values [24]: > 100 µg/mL
MIC values [13]: 1.56 µg/mL (≈ 3.73 µM)
MIC values [14]: 0.2 µg/mL (≈ 0.478 µM)
MIC values (Acinetobacter SP CMX 699): 3.1 µg/mL (≈ 7.41 µM)
MIC values [25]: > 100 µg/mL
MIC values [15]: 0.78 µg/mL (≈ 1.86 µM)
MIC values [16]: 6.2 µg/mL (≈ 14.8 µM)
MIC values [17]: 0.1 µg/mL (≈ 0.239 µM)
MIC values (Escherichia coli SS): 0.01 µg/mL (≈ 0.0239 µM)
MIC values (Pseudomonas cepacia 2961): 12.5 µg/mL (≈ 29.9 µM)
MIC values [18]: 0.2 µg/mL (≈ 0.478 µM)
MIC values (Escherichia coli JUHL): 1.56 µg/mL (≈ 3.73 µM)
MIC values [19]: 12.5 µg/mL (≈ 29.9 µM)
MIC values [20]: 3.1 µg/mL (≈ 7.41 µM)
MIC values [21]: 6.2 µg/mL (≈ 14.8 µM)
MIC values [22]: 1.56 µg/mL (≈ 3.73 µM)

NC1CN(c2c(F)cc3c(=O)c(C(=O)O)cn(C4CC4)c3c2F)CC12OCCO2 (centres unmarked) [Example 274, 1-Cyclopropyl-6,8-difluoro-7-(9-amino-1,4-dioxa-7-azaspiro[4.4]non-7-yl)-1,4-dihydro-4-oxo-3-quinolinecarboxylic acid]
MIC values [1]: 0.1 µg/mL (≈ 0.245 µM)
MIC values [2]: 1.56 µg/mL (≈ 3.83 µM)
MIC values [3]: 0.2 µg/mL (≈ 0.491 µM)
MIC values [4]: 0.78 µg/mL (≈ 1.91 µM)
MIC values [5]: 0.39 µg/mL (≈ 0.957 µM)
MIC values [6]: 0.1 µg/mL (≈ 0.245 µM)
MIC values [7]: 0.05 µg/mL (≈ 0.123 µM)
MIC values [8]: 0.05 µg/mL (≈ 0.123 µM)
MIC values (Escherichia coli DC-2): 0.78 µg/mL (≈ 1.91 µM)
MIC values (Escherichia coli H560): 0.2 µg/mL (≈ 0.491 µM)
MIC values [9]: 0.1 µg/mL (≈ 0.245 µM)
MIC values [10]: 0.39 µg/mL (≈ 0.957 µM)
MIC values [11]: 0.1 µg/mL (≈ 0.245 µM)
MIC values [12]: 1.56 µg/mL (≈ 3.83 µM)
MIC values (Escherichia coli KNK 437): 0.78 µg/mL (≈ 1.91 µM)
MIC values [23]: 0.05 µg/mL (≈ 0.123 µM)
MIC values [13]: 0.2 µg/mL (≈ 0.491 µM)
MIC values [14]: 0.1 µg/mL (≈ 0.245 µM)
MIC values (Acinetobacter SP CMX 699): 0.2 µg/mL (≈ 0.491 µM)
MIC values [15]: 0.39 µg/mL (≈ 0.957 µM)
MIC values [16]: 6.2 µg/mL (≈ 15.2 µM)
MIC values [17]: 0.05 µg/mL (≈ 0.123 µM)
MIC values (Escherichia coli SS): 0.002 µg/mL (≈ 0.00491 µM)
MIC values (Pseudomonas cepacia 2961): 6.2 µg/mL (≈ 15.2 µM)
MIC values [18]: 0.1 µg/mL (≈ 0.245 µM)
MIC values (Escherichia coli JUHL): 0.05 µg/mL (≈ 0.123 µM)
MIC values [19]: 1.56 µg/mL (≈ 3.83 µM)
MIC values [20]: 0.39 µg/mL (≈ 0.957 µM)
MIC values [21]: 0.2 µg/mL (≈ 0.491 µM)
MIC values [22]: 0.2 µg/mL (≈ 0.491 µM)
